Drawing on US8362017B2, “C-kit modulators and methods of use” (Exelixis, Inc., priority 2003, dated 2013), this text covers IC50 for 14 compounds.

Some results are limits rather than exact numbers.

The IC50 is the concentration at which inhibition is half-maximal. A lower IC50 goes with greater potency.

c-Kit kinase, sequence (P10721 26-976): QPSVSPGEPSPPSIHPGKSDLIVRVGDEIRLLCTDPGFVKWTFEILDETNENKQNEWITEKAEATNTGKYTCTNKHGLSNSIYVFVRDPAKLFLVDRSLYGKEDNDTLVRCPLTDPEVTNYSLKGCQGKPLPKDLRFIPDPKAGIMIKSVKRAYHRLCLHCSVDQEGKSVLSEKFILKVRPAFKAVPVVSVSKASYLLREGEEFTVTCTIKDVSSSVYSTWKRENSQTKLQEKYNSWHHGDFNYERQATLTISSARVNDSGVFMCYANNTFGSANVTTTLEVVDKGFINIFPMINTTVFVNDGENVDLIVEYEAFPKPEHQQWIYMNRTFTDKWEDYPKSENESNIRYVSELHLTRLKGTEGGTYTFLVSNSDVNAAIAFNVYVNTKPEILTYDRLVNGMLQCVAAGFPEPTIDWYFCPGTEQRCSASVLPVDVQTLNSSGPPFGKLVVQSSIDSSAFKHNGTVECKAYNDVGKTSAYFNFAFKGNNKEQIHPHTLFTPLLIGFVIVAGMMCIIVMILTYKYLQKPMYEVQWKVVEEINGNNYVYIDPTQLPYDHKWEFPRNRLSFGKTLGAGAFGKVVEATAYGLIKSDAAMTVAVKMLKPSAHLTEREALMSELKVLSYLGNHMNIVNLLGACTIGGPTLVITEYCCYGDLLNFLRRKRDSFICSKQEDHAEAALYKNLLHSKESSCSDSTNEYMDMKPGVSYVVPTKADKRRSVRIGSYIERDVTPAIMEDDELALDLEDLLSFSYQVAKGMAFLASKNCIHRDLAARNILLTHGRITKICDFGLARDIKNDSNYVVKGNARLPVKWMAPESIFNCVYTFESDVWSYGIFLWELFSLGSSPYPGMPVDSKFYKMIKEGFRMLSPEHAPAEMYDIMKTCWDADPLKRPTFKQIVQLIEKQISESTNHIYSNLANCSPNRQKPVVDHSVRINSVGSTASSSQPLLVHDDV

This test deals with c-Kit kinase (Homo sapiens, UniProt P10721). The test is described as follows: c-Kit biochemical activity assay (AlphaScreen). Conditions: biotinylated poly(Glu, Tyr) substrate, 1 hr at ambient temperature. On the procedure:
Kinase activity and compound inhibition are investigated using one or more of the three assay formats described below. The ATP concentrations for each assay are selected to be close to the Michaelis-Menten constant (KM) for each individual kinase. Dose-response experiments are performed at 10 different inhibitor concentrations in a 384-well plate format. The data are fitted to four-parameter equation (2) below; where Y is the observed signal, X is the inhibitor concentration, Min is the background signal in the absence of enzyme (0% enzyme activity), Max is the signal in the absence of inhibitor (100% enzyme activity), IC50 is the inhibitor concentration at 50% enzyme inhibition and H represents the empirical Hill's slope to measure the cooperativity. Typically H is close to unity. Y=Min+(Max−Min)/(1+(X/IC50)^H) Equation (2) c-Kit Assay
c-Kit biochemical activity was assessed using AlphaScreen™ (Perldn Elmer) technology, described above. Test compounds, ATP, biotinylated poly(Glu, Tyr) and c-Kit kinase were combined in a volume of 20 μL in a 384-well white, medium binding microtiter plate (Greiner). Reaction mixtures were incubated for 1 hr at ambient temperature. Reactions were quenched by addition of 10 μL of 15-30 mg/mL AlphaScreen bead suspension containing 75 mM Hepes, pH 7.4, 300 mM NaCl, 120 mM EDTA, 0.3% BSA and 0.03% Tween-20. After 16 hr incubation at ambient temperature plates were read using an AlphaQuest reader (Perkin Elmer).
On the technique in general: In Alpha technology, singlet oxygen from a donor bead excites a nearby acceptor bead.
`Cc1nnnn1-c1cccc(OCC(=O)Nc2ccc(Cl)c(C(F)(F)F)c2)c1` [Example 5, N-[4-chloro-3-(trifluoromethyl)phenyl]-2-{[3-(5-methyl-1H-tetrazol-1-yl)phenyl]oxy}acetamide] gave an IC50 of 500 to 5000 nM.

In turn, `O=C(COc1ccc(-c2cncnc2)cc1)Nc1ccc(Cl)c(C(F)(F)F)c1` [Example 7, N-[4-chloro-3-(trifluoromethyl)phenyl]-2-[(4-pyrimidin-5-ylphenyl)oxy]acetamide] registered an IC50 of 50 to 500 nM. In turn, `O=C(NCc1cccc(-c2ccc3nccnc3c2)c1)Nc1ccc(Cl)c(C(F)(F)F)c1` [Example 11, 1-(4-Chloro-3-trifluoromethyl-phenyl)-3-(3-quinoxalin-6-yl-benzyl)urea] had an IC50 of 50 to 500 nM. `O=C(NC(=O)c1cccc(-n2cnnn2)c1)Nc1ccc(Cl)c(C(F)(F)F)c1` [Example 13, 1-(4-chloro-3-trifluoromethyl-phenyl)-3-(3-tetrazol-1-yl-benzoyl)-urea] returned an IC50 of 500 to 5000 nM. With `Cc1ccc(-n2cnnn2)cc1OCC(=O)Nc1ccc(Cl)c(C(F)(F)F)c1` [Example 18, N-[4-chloro-3-(trifluoromethyl)phenyl]-2-{[2-methyl-5-(1H-tetrazol-1-yl)phenyl]oxy}acetamide] the figure was more than 5000 nM. With `COC(=O)c1cn(-c2cccc(OCC(=O)Nc3ccc(Cl)c(C(F)(F)F)c3)c2)nn1` [Example 29, methyl 1-{3-[(2-{[4-chloro-3-(trifluoromethyl)phenyl]amino}-2-oxoethyl)oxy]phenyl}-1H-1,2,3-triazole-4-carboxylate] the figure was 500 to 5000 nM.

`COc1ccc(Cl)cc1NC(=O)OCc1cccc(-c2cccnc2)c1` [Example 234, (3-pyridin-3-ylphenyl)methyl [5-chloro-2-(methyloxy)phenyl]carbamate] gave an IC50 of 500 to 5000 nM. With `O=C(Nc1ccc(Cl)c(C(F)(F)F)c1)OCc1ccc(-n2cnnn2)cc1` [Example 235, [4-(1H-tetrazol-1-yl)phenyl]methyl [4-chloro-3-(trifluoromethyl)phenyl]carbamate] the figure was 500 to 5000 nM.

In turn, `COc1ccc(Cl)cc1NC(=O)OCc1cccc(-c2cncnc2)c1` [Example 236, (3-pyrimidin-5-ylphenyl)methyl [5-chloro-2-(methyloxy)phenyl]carbamate] registered an IC50 of 500 to 5000 nM. Take `Cc1ccc(NC(=O)OCc2ccc(-c3cncnc3)cc2)cc1C` [Example 237, (4-pyrimidin-5-ylphenyl)methyl (3,4-dimethylphenyl)carbamate]: the IC50 was 500 to 5000 nM. With `Cc1ccc(NC(=O)OCc2cccc(-c3cccnc3)c2)cc1C` [Example 238, (3-pyridin-3-ylphenyl)methyl (3,4-dimethylphenyl)carbamate] the figure was 50 to 500 nM. Compound `CC(C)(C)OC(=O)N1CCCC(NC(=O)c2nc(-c3cccc(CNC(=O)Nc4ccc(Cl)c(C(F)(F)F)c4)c3)cnc2N)C1` (centres unmarked) [Example 239, 1,1-dimethylethyl 3-({[3-amino-6-(3-{[({[4-chloro-3-(trifluoromethyl)phenyl]amino}carbonyl)amino]methyl}phenyl)pyrazin-2-yl]carbonyl}amino)piperidine-1-carboxylate] registered an IC50 of 500 to 5000 nM.

The compound `CC(C)(C)OC(=O)N1CCCC(NC(=O)c2nc(-c3ccc(CNC(=O)Nc4ccc(Cl)c(C(F)(F)F)c4)cc3)cnc2N)C1` (centres unmarked) [Example 240, 1,1-dimethylethyl 3-({[3-amino-6-(4-{[({[4-chloro-3-(trifluoromethyl)phenyl]amino}carbonyl)amino]methyl}phenyl)pyrazin-2-yl]carbonyl}amino)piperidine-1-carboxylate] yielded an IC50 of 500 to 5000 nM. For the compound `Nc1ncc(-c2cccc(CNC(=O)Nc3ccc(Cl)c(C(F)(F)F)c3)c2)nc1C(=O)NC1CCCNC1` (centres unmarked) [Example 241, 3-amino-6-(3-{[({[4-chloro-3-(trifluoromethyl)phenyl]amino}carbonyl)amino]methyl}phenyl)-N-piperidin-3-ylpyrazine-2-carboxamide], the IC50 lay in the range of 50 to 500 nM.
